Data: patent US7935722B2 (Eli Lilly and Company, priority 2005, dated 2011)
Read-outs that look alike come from different tables or passages of the source.

What was measured:
[1] = biological target: T1, human androgen receptor (AR) (Homo sapiens, UniProt P10275); assay: C2C12 AR/ARE reporter assay; format: cell-based
T1 construct: expressed in transfected cells; host or cells: mouse myoblast C2C12 cells, transiently co-transfected
T1 sequence (P10275 1-920): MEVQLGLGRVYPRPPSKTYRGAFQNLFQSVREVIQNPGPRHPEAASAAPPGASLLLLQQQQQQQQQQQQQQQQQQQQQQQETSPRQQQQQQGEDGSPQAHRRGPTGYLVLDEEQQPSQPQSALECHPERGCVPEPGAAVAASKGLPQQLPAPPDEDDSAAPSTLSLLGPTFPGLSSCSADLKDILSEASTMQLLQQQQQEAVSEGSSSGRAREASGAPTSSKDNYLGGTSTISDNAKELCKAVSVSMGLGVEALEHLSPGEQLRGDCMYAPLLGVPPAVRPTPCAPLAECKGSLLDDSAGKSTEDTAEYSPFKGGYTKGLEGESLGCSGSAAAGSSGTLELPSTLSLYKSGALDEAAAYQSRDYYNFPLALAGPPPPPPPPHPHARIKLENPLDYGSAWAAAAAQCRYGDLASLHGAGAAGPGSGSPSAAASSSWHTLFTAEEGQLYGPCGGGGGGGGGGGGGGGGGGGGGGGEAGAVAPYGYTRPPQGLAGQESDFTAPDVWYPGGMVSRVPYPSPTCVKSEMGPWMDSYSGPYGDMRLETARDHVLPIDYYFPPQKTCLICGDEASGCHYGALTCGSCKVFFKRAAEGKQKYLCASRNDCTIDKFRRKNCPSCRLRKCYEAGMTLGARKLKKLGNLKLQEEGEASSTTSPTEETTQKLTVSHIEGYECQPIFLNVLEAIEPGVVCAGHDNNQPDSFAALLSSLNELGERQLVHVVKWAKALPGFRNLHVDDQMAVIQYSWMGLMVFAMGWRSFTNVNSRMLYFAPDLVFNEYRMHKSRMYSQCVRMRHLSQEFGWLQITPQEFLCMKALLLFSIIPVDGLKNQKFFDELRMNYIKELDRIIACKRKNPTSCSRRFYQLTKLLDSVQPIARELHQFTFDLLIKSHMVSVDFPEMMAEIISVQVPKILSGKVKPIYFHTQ
Method in brief: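 Mouse C2C12 myoblasts co-transfected with AR/ARE reporter were plated in charcoal-stripped serum and treated for 48 h with compound from about 0.01 nM to 10 μM. Luciferase activity gave EC50 by 4-parameter logistic fit. Efficacy is expressed as % of maximal stimulation by 10 nM methyltrienolone.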

[2] = biological target: T2, human AR (androgen receptor) (Homo sapiens, UniProt P10275); assay: Steroid hormone nuclear receptor binding assay, AR binding
T2 construct: expressed in transfected cells; host or cells: 293 cells (293-AR lysate)
T2 sequence (P10275 1-920): T1 sequence (P10275 1-920)
Method in brief: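 Competition binding with lysates of 293 cells overexpressing human AR, [3H]-methyltrienolone tracer, compounds from about 0.01 nM to 10 μM, overnight at 4 °C; non-specific binding set with 500 nM methyltrienolone. Bound tracer counted by scintillation after charcoal-dextran separation; IC50 converted to Ki by Cheng-Prusoff using Kd from saturation binding.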

[3] = C2C12, read-out: C2C12 % Efficacy
[4] = average of n trials, read-out: AR binding Ki
[5] = C2C12 AR/ARE reporter assay, average of n trials, read-out: C2C12 % Efficacy
[6] = C2C12 AR/ARE reporter assay, average of n trials, read-out: C2C12 EC50

Row | SMILES | Emax [1, 3] | melting point | Ki [2] | EC50 [1] | Ki [2, 4] | Emax [1, 5] | EC50 [1, 6]
1 | CC(C)C(=O)NC1CCc2c(c3cc(C#N)ccc3n2Cc2cccc(F)c2)C1 (centres unmarked) [Example 51, N-(6-cyano-9-(3-fluorobenzyl)-2,3,4,9-tetrahydro-1H-carbazol-3-yl)isobutyramide] | 87.5% | 195 to 199 °C |  |  |  |  | 
2 | CC(C)C(=O)NC1CCc2c(c3cc(C#N)ccc3n2Cc2ncccc2F)C1 (centres unmarked) [Example 182, N-[6-Cyano-9-(3-fluoro-pyridin-2-ylmethyl)-2,3,4,9-tetrahydro-1H-carbazol-3-yl]-isobutyramide] | 88.7% | 213 to 216 °C | 28.4 nM | 151 nM |  |  | 
3 | CC(C)C(=O)NC1CCc2c(c3cc(Br)ccc3n2Cc2ccccc2F)C1 (centres unmarked) [Example 31] | 70.8% | 194 to 197 °C | 5.3 nM | 58.7 nM |  |  | 
4 | Cc1cc(-c2ccc3c(c2)c2c(n3Cc3cccc(F)c3)CC[C@@H](NC(=O)C3CC3)C2)no1 [Example 204, (R)-Cyclopropanecarboxylic acid[9-(3-fluoro-benzyl)-6-(5-methyl-isoxazol-3-yl)-2,3,4,9-tetrahydro-1H-carbazol-3-yl]-amide] | 90.8% | 190 to 192 °C | 6.8 nM | 2.7 nM |  |  | 
5 | CC(C)C(=O)NC1CCc2c(c3ccc(Cl)cc3n2Cc2cccc(F)c2)C1 (centres unmarked) [Example 56] | 66.6% | 233 to 235 °C |  |  |  |  | 
6 | COc1ccccc1Cn1c2c(c3cc(Br)ccc31)CC(NC(=O)C(C)C)CC2 (centres unmarked) [Example 34] | 103% | 108 to 111 °C |  |  |  |  | 
7 | CC(C)C(=O)NC1CCc2c(c3cc(Cl)ccc3n2Cc2cc(F)cc(F)c2)C1 (centres unmarked) [Example 29] | 64% | 207 to 210 °C |  |  |  |  | 
8 | CC(C)C(=O)NC1CCc2c(c3cc(Br)ccc3n2Cc2ccccc2)C1 (centres unmarked) [Example 30] | 87% | 173 to 177 °C |  |  |  |  | 
9 | CC(C)C(=O)NC1CCc2c(c3cccc(F)c3n2Cc2cccc(F)c2)C1 (centres unmarked) [Example 58] | 62.1% | 185 to 188 °C |  |  |  |  | 
10 | CC(C)C(=O)NC1CCc2c(c3cc(Cl)ccc3n2Cc2ccccc2)C1 (centres unmarked) [Example 16] | 86% | 174 to 176 °C |  |  |  |  | 
11 | CC(C)C(=O)NC1CCc2c(c3cc(F)ccc3n2Cc2ccccc2F)C1 (centres unmarked) [Example 4] | 36.1% | 156 to 158 °C |  |  |  |  | 
12 | Cc1ccc2c(c1)c1c(n2Cc2cccc(F)c2)CCC(NC(=O)C(C)C)C1 (centres unmarked) [Example 47] | 86.3% | 215 to 217 °C |  |  |  |  | 
13 | CC(C)C(=O)N[C@@H]1CCc2c(c3cc(Br)ccc3n2Cc2cccc(F)c2)C1 [Example 122] |  | 204 to 207 °C |  |  |  |  | 
14 | COc1cccc(Cn2c3c(c4cc(Cl)ccc42)CC(NC(=O)C(C)C)CC3)c1 (centres unmarked) [Example 23] | 54.4% | 178 to 181 °C |  |  |  |  | 
15 | CC(C)C(=O)NC1CCc2c(c3cc(Cl)ccc3n2Cc2cccc(F)c2)C1 (centres unmarked) [Example 21] | 81% | 187 to 189 °C |  |  |  |  | 
16 | CNC(=O)NC1CCc2c(c3cc(C#N)ccc3n2Cc2cccc(F)c2)C1 (centres unmarked) [Example 179, 1-[6-Cyano-9-(3-fluorobenzyl)-2,3,4,9-tetrahydro-1H-carbazol-3-yl]-3-methyl-urea] |  |  |  |  | 14.6 nM | 114% | 24.1 nM
17 | CC(C)C(=O)NC1CCc2c(c3cc(Br)ccc3n2Cc2ccccc2Cl)C1 (centres unmarked) [Example 32] | 94.3% | 196 to 198 °C |  |  |  |  | 
18 | Cc1ccc(-c2ccc3c(c2)c2c(n3Cc3cccc(F)c3)CCC(NC(=O)C(C)C)C2)nn1 (centres unmarked) [Example 139, N-[9-(3-Fluoro-benzyl)-6-(6-methyl-pyridazin-3-yl)-2,3,4,9-tetrahydro-1H-carbazol-3-yl]-isobutyramide] |  |  |  |  | 34.9 nM | 96.9% | 19.4 nM

Row | SMILES | Emax [1, 3] | melting point | Ki [2] | EC50 [1] | Ki [2, 4] | Emax [1, 5] | EC50 [1, 6]
19 | COC(=O)NC1CCc2c(c3cc(OC(F)(F)F)ccc3n2Cc2cccc(F)c2)C1 (centres unmarked) [Example 168] |  |  |  |  | 37 nM | 56.7% | 280 nM
20 | CC(C)C(=O)N[C@@H]1CCc2c(c3cc(-c4cnc(N)s4)ccc3n2Cc2cccc(F)c2)C1 [Example 141] | 102% |  | 10 nM | 41 nM |  |  | 
21 | CC(C)C(=O)NC1CCc2c(c3cc(C#N)ccc3n2Cc2ccccc2)C1 (centres unmarked) [Example 85] | 79.8% |  | 4.6 nM | 3.8 nM |  |  | 
22 | COc1ccc2c3c(n(Cc4ccccc4)c2c1)CCC(NC(=O)C(C)C)C3 (centres unmarked) [Example 77] | 74.9% |  | 103 nM | 1200 nM |  |  | 
23 | Cc1cccc(Cn2c3c(c4cc(Cl)ccc42)CC(NC(=O)C(C)C)CC3)c1 (centres unmarked) [Example 82] | 87.3% |  | 6.1 nM | 37.1 nM |  |  | 
24 | CC(C)C(=O)NC1CCc2c(c3cc(Cl)ccc3n2Cc2ccc(F)cc2)C1 (centres unmarked) [Example 25] | 62.7% | 175 to 178 °C |  |  |  |  | 
25 | COc1ccc2c(c1)c1c(n2Cc2ccccn2)CCC(NC(=O)C(C)C)C1 (centres unmarked) [Example 143, N-(6-methoxy-9-pyridin-2-ylmethyl-2,3,4,9-tetrahydro-1H-carbazol-3-yl)-isobutyramide] | 80.3% |  | 362 nM | 351 nM |  |  | 
26 | CC(C)C(=O)NC1CCc2c(c3cc(C#N)cc(Cl)c3n2Cc2cccc(F)c2)C1 (centres unmarked) [Example 119, N-[8-Chloro-6-cyano-9-(3-fluoro-benzyl)-2,3,4,9-tetrahydro-1H-carbazol-3-yl]-isobutyramide] |  |  |  |  | 7.3 nM | 99.1% | 34.2 nM
27 | CCOc1ccc2c(c1)c1c(n2Cc2cccc(F)c2)CCC(NC(=O)C(C)C)C1 (centres unmarked) [Example 93, N-[6-Ethoxy-9-(3-fluoro-benzyl)-2,3,4,9-tetrahydro-1H-carbazol-3-yl]-isobutyramide] | 82.4% |  | 6.8 nM | 5 nM |  |  | 
28 | CN(C)C(=O)NC1CCc2c(c3cc(OC(F)(F)F)ccc3n2Cc2cccc(F)n2)C1 (centres unmarked) [Example 165] | 74.6% |  | 14.2 nM | 15.3 nM |  |  | 
29 | CC(C)C(=O)NC1CCc2c(c3cc(OCC4CC4)ccc3n2Cc2cccc(F)c2)C1 (centres unmarked) [Example 92, N-[6-Cyclopropylmetboxy-9-(3-fluoro-benzyl)-2,3,4,9-tetrahydro-1H-carbazol-3-yl]-isobutyramide] | 73.4% |  | 4.1 nM | 3 nM |  |  | 
30 | N#Cc1ccc2c(c1)c1c(n2Cc2cccc(F)c2)CC[C@@H](NC(=O)C2CC2)C1 [Example 194, (R)-Cyclopropanecarboxylic acid[6-cyano-9-(3-fluorobenzyl)-2,3,4,9-tetrahydro-1H-carbazol-3-yl]amide] | 95.5% |  | 1.3 nM | 2 nM |  |  | 
31 | CC(C)C(=O)NC1CCc2c(c3c(Cl)c(C#N)ccc3n2Cc2cccc(F)c2)C1 (centres unmarked) [Example 117, N-[5-Chloro-6-cyano-9-(3-fluoro-benzyl)-2,3,4,9-tetrahydro-1H-carbazol-3-yl]-isobutyramide] | 76.7% |  | 4.5 nM | 12 nM |  |  | 
32 | COC(=O)N[C@@H]1CCc2c(c3cc(C#N)ccc3n2Cc2ccccn2)C1 [Example 185, (6(R)-Cyano-9-pyridin-2-ylmethyl-2,3,4,9-tetrahydro-1H-carbazol-3-yl)-carbamic acid methyl ester] |  |  |  |  | 23.3 nM | 77.5% | 76 nM
33 | COc1ccc2c(c1)c1c(n2Cc2cccc(Cl)c2)CCC(NC(=O)C(C)C)C1 (centres unmarked) [Example 70] | 63.9% |  | 10 nM | 39.8 nM |  |  | 
34 | COc1cccc2c3c(n(Cc4ccccc4)c12)CCC(NC(=O)C(C)C)C3 (centres unmarked) [Example 76] | 58.1% |  | 478 nM | 1710 nM |  |  | 
35 | CC(C)C(=O)NC1CCc2c(c3cc(C#N)ccc3n2Cc2cccc(Br)c2)C1 (centres unmarked) [Example 86] | 93.9% |  | 2.6 nM | 36.3 nM |  |  | 
36 | CC(C)C(=O)NC1CCc2c(c3cc(Cl)ccc3n2Cc2cccc(C#N)c2)C1 (centres unmarked) [Example 24] | 48.9% | 225 to 228 °C (dec.) |  |  |  |  | 
